Source: patent publication US9328099B2, “Cyanomethylpyrazole carboxamides as janus kinase inhibitors” (Merck Sharp & Dohme Corp., priority 2011, dated 2016)

Columns and labels:
JAK2 = JAK2 (Homo sapiens (Human), UniProt O60674); assay: Jak Biochemical HTRF Assay, JAK2; settings: HTRF biochemical assay, GST-tagged catalytic domain; top concentration tested […]
Description: (§1) Jak Biochemical HTRF Assay Protocol
(§2) Subsequent reagent additions employed an Agilent Bravo.

JAK1 = JAK1 (Homo sapiens (Human), UniProt P23458); assay: Jak Biochemical HTRF Assay, JAK1; settings: HTRF biochemical assay, GST-tagged catalytic domain; top concentration tested […]; read-out: JAK1 IC50
Description: as §1, §2

JAK1, sequence (P23458 875-1153): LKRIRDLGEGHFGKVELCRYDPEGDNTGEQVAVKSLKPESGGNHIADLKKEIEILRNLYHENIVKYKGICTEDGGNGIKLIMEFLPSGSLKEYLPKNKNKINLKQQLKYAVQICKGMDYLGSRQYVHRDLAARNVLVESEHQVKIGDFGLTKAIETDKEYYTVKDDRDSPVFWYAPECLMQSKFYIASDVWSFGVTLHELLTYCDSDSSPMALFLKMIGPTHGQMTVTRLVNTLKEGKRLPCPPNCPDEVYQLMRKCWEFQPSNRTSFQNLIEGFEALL
JAK2, sequence (O60674 849-1124): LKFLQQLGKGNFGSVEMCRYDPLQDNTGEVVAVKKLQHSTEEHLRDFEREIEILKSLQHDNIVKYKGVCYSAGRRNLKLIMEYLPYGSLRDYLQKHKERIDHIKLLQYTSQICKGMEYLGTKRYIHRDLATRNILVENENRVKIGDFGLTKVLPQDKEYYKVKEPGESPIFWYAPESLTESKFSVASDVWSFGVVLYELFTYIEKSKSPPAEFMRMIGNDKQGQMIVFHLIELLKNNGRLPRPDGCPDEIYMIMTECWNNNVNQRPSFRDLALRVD

SMILES	IC50 (JAK2) [nM]	IC50 (JAK1) [nM]
N#CCC1(n2cc(C(N)=O)c(Nc3ccnc(F)c3)n2)CCN(Cc2ccc(F)cc2)CC1 [Example 22-11, 1-[4-(cyanomethyl)-1-(4-fluorobenzyl)piperidin-4-yl]-3-[(2-fluoropyridin-4-yl)amino]-1H-pyrazole-4-carboxamide]	4	0.1
Cc1nc(-c2ccc(Nc3nn(C4(CC#N)CCN(C(=O)OC(C)(C)C)CC4)cc3C(N)=O)cc2)no1 [Example 9-32, tert-butyl 4-(4-carbamoyl-3-{[4-(5-methyl-1,2,4-oxadiazol-3-yl)phenyl]amino}-1H-pyrazol-1-yl)-4-(cyanomethyl)piperidine-1-carboxylate]	8	0.3
N#CCC1(n2cc(C(N)=O)c(Nc3ccnc(F)c3)n2)CCC(NCc2ccc(C#N)cc2)CC1 (stereo not drawn) [Example 41-6, Cis or trans 1-{4-[(4-cyanobenzyl)amino]-1-(cyanomethyl)cyclohexyl}-3-[(2-fluoropyridin-4-yl)amino]-1H-pyrazole-4-carboxamide]	851	23
CC(C)(C)OC(=O)N1CCC(CC#N)(n2cc(C(N)=O)c(Nc3cccc(Cn4nnc5ccccc54)c3)n2)CC1 [Example 2-4, tert-butyl 4-(3-{[3-(1H-benzotriazol-1-ylmethyl)phenyl]amino}-4-carbamoyl-1H-pyrazol-1-yl)-4-(cyanomethyl)piperidine-1-carboxylate]	18	0.5
Cc1cc(C)c(NC(=O)N2CC(CC#N)(n3cc(C(N)=O)c(Nc4ccccc4)n3)C2)c(C)c1 [Example 38-12, 1-{3-(cyanomethyl)-1-[(2,4,6-trimethylphenyl)carbamoyl]azetidin-3-yl}-3-(phenylamino)-1H-pyrazole-4-carboxamide]	1440	128
N#CCC1(n2cc(C(N)=O)c(Nc3ccc(F)cc3)n2)CCN(Cc2cccnn2)CC1 [Example 22-47, 1-[4-(cyanomethyl)-1-(pyridazin-3-ylmethyl)piperidin-4-yl]-3-[(4-fluorophenyl)amino]-1H-pyrazole-4-carboxamide]	100	6
N#CCC1(n2cc(C(N)=O)c(Nc3ccnc(F)c3)n2)CCC(Nc2ccc(F)cc2F)CC1 (stereo not drawn) [Example 40-33, Cis or trans 1-{1-(cyanomethyl)-4-[(2,4-difluorophenyl)amino]cyclohexyl}-3-[(2-fluoropyridin-4-yl)amino]-1H-pyrazole-4-carboxamide]	0.8	0.03

The remaining lines, values ahead:

IC50 (JAK2) [nM]	IC50 (JAK1) [nM]	SMILES
813	50	N#CCC1(n2cc(C(N)=O)c(Nc3ccc(F)cc3)n2)CCS(=O)(=O)CC1 [Example 8, 1-(4-(Cyanomethyl)-1,1-dioxidotetrahydro-2H-thiopyran-4-yl)-3-((4-fluorophenyl)amino)-1H-pyrazole-4-carboxamide]
97	3	N#CCC1(n2cc(C(N)=O)c(Nc3ccc(F)cc3)n2)CCN(C(=O)OCCC(F)(F)F)CC1 [Example 30-45, 3,3,3-Trifluoropropyl 4-{4-carbamoyl-3-[(4-fluorophenyl)amino]-1H-pyrazol-1-yl}-4-(cyanomethyl)piperidine-1-carboxylate]
240	8	CC1(COC(=O)N2CCC(CC#N)(n3cc(C(N)=O)c(Nc4ccc(F)cc4)n3)CC2)COC1 [Example 30-20, (3-methyloxetan-3-yl)methyl 4-{4-carbamoyl-3-[(4-fluorophenyl)amino]-1H-pyrazol-1-yl}-4-(cyanomethyl)piperidine-1-carboxylate]
4	0.2	N#CCC1(n2cc(C(N)=O)c(Nc3ccc(F)cc3)n2)CCN(c2cncc(F)c2)CC1 [Example 3-5, 1-[4-(cyanomethyl)-1-(5-fluoropyridin-3-yl)piperidin-4-yl]-3-[(4-fluorophenyl)amino]-1H-pyrazole-4-carboxamide]
